In patent US20100080855A1, “HEDGEHOG SIGNALING AND CANCER STEM CELLS IN HEMATOPOIETIC CELL MALIGNANCIES” (THE BOARD OF TRUSTEES OF THE LELAND STANFORD JUNIOR …, priority 2008, published 2010):

Tested on: BCR-ABL1 driven leukemia
Settings: leukemias of mice treated with 25 mg/kg cyclopamine vs vehicle; flow cytometry lin-GFP+ c-Kit+Sca-1+

SMILES: CC1=C2C[C@H]3[C@@H](CC=C4C[C@@H](O)CC[C@@]43C)[C@@H]2CC[C@]12O[C@@H]1C[C@H](C)CN[C@H]1[C@H]2C [cyclopamine]
- reduction in the CML stem cell population: up to a fourteen-fold reduction
